Measured values as given in patent publication US7872005B2, “2-substituted heteroaryl compounds” (Synta Pharmaceuticals Corporation, priority 2004, dated 2011).

Experiments:
[1] = tested on: IL-12 production in human PBMC or THP-1 cells; assay: In vitro inhibition of IL-12 production in stimulated human PBMC or THP-1 cells (ELISA); type: cell-based; conditions: representative in vitro IC50 data
From the text: The biological activities of a heterocyclic compound can be evaluated by a number of cell-based assays. One of such assays can be conducted using cells from human peripheral blood mononuclear cells (PBMC) or human monocytic cell line (THP-1). The cells are stimulated with a combination of human interferon-γ (IFNγ) and lipopolysaccharide or a combination of IFNγ and Staphylococcus aureus Cowan I in the presence of a test compound. The level of inhibition of IL-12 production can be measured by determining the amount of p70 by using a sandwich ELISA assay with anti-human IL-12 antibodies. IC50 of the test compound can then be determined. Specifically, PBMC or THP-1 cells are incubated with the test compound. Cell viability was assessed using the bioreduction of MTS [3-(4,5-dimethylthiazol-2-yl)-5-(3-carboxymethoxyphenyl)-2-(4-sulfophenyl)-2H-tetrazolium] (Promega, Madison, Wis.).
Reagents. Staphylococcus aureus Cowan I (SAC) was obtained from Calbiochem (La Jolla, Calif.), and lipopolysaccharide (LPS, Serratia marscencens) was obtained from Sigma (St. Louis, Mo.). Human and mouse recombinant IFNγ were purchased from Boehringer Mannheim (Mannheim, Germany) and Pharmingen (San Diego, Calif.), respectively.
Human In Vitro Assay. Human PBMC were isolated by centrifugation using Ficoll-Paque (Pharmacia Biotech, Uppsala, Sweden) and prepared in RPMI medium supplemented with 10% fetal calf serum (FCS), 100 U/mL penicillin, and 100 μg/mL streptomycin. PBMC were plated in wells of a 96-well plate at a concentration of 5×10^5 cells/well, and primed by adding IFNγ (30 U/mL) for 22 h and stimulated by adding LPS (1 μg/mL), or by adding IFNγ (100 U/mL) and then stimulated by adding SAC (0.01%). A test pyrimidine compound was dissolved in DMSO, and added to wells of the 96-well plate. The final DMSO concentration was adjusted to 0.25% in all cultures, including the compound-free control. Human THP-1 cells were plated in wells, primed by adding IFNγ (100 U/mL) for 22 h and stimulated by adding SAC (0.025%) in the presence of different concentrations of the pyrimidine compound. Cell-free supernatants were taken 18 h later for measurement of cytokines. Cell viability was assessed using the bioreduction of MTS. Cell survival was estimated by determining the ratio of the absorbance in compound-treated groups versus compound-free control.
The supernatant was assayed for the amount of IL-12p40, IL-12p70, or IL-10 by using a sandwich ELISA with anti-human antibodies, i.e., a Human IL-12 p40 ELISA kit from R&D Systems (Berkeley, Calif.), and a Human IL-12 p70 or IL-10 ELISA kit from Endogen (Cambridge, Mass.). Assays were based on the manufacturer's instructions.
The biological activities of pyrimidine compounds were tested on human PBMC or THP-1 cells. Unexpectedly, some of the test compounds have IC50 values as low as <1 nM.

[2] = tested on: adjuvant arthritis (AA) in female Lewis rats; assay: Treatment of adjuvant arthritis in rats; type: in vivo, rat; conditions: oral, once a day for 12 days; dose-dependent
Experimental: A heterocyclic compound can also be evaluated by animal studies. For example, one of such studies involves the ability of a test compound to treat adjuvant arthritis (i.e., a IL-12 overproduction related disorder) in rats.
Treatment of adjuvant arthritis in rats: Adjuvant arthritis (AA) was induced in female Lewis rats by the intracutaneous injection (base of the tail) of 0.1 mL of a 10 mg/mL bacterial suspension made from ground, heat-killed Mycobacterium tuberculosis H37Ra suspended in incomplete Freund's adjuvant. Rats were given a test compound orally once a day for 12 days, starting the day following the induction. The development of polyarthritis was monitored daily by macroscopic inspection and assignment of an arthritis index to each animal, during the critical period (days 10 to 25 post-immunization).
The intensity of polyarthritis was scored according to the following scheme: (a) Grade each paw from 0 to 3 based on erythema, swelling, and deformity of the joints: 0 for no erythema or swelling; 0.5 if swelling is detectable in at least one joint; 1 for mild swelling and erythema; 2 for swelling and erythema of both tarsus and carpus; and 3 for ankylosis and bony deformity. Maximum score for all 4 paws was thus 12. […]

Cc1cccc(/C=N/Nc2cc(N3CCOCC3)nc(CCOC(=O)Nc3cccc(C(F)(F)F)c3)n2)c1 [Compound 12, (3-Trifluoromethyl-phenyl)-carbamic acid 2-{4-[N′-(3-methyl-benzylidene)-hydrazino]-6-morpholin-4-yl-pyrimidin-2-yl}-ethyl ester]
IC50 [1]: < 25 nM | arthritic score [2]: reduced the arthritic score | development of polyarthritis [2]: delayed the development of polyarthritis
